What was measured:
[1] = system: PC-3 prostate cancer cells; assay: MTT anti-cancer assay, PC-3 prostate cancer cells; format: cell-based, human; details: PC-3, 6 days
Excerpt: (§1) The anti-cancer activity of the compounds of the invention herein have been tested in in vitro assays using a microculture assay with 3-(4,5-dimethylthiazol-2-yl)-2,5-diphenyltetrazolium bromide (“MTT”) a test well known to those skilled in the art. This assay has an advantage over in vivo assay in that results are obtained within a week as opposed to several months. The assay can be carried out in 96-well microtiter plates. The MTT assay is based on the production of a dark blue formazan product by dehydrogenase in the mitochondria of live tumor cells after exposure to drug for 6 days [M. C. […] Thus, only live cells are stained and can be measured at 595 nm. […]
(§2) Treatment: Before commencing drug treatment, cells were replenished with media containing 0.5% FCS. […] As an end point, the amount of surviving cells (Live cells) was measured using a standard […] assay (MTT based), and calculated as percentage of cells treated with vehicle (DMSO) alone (% control).
(§3) MTT assay: The assay is based on the cleavage of the yellow tetrazolium salt MTT to purple formazan crystals by dehydrogenase activity in active mitochondria. […] The formazan crystals formed are solubilized and the resulting colored solution is quantified using a scanning multiwell spectrophotometer. […]

[2] = system: human cancer cell lines (A549, MDA-MB-468, PC-3, Bx-PC3); assay: MTT anti-cancer assay, the other cancer cell lines of the panel; format: cell-based; details: cell lines other than PC-3 (A549, MDA-MB-468, Bx-PC3), compared to PC-3
Excerpt: as §1, §2, §3

Compound: COc1cccc(/C=C2\SC(=S)N(CC(=O)O)C2=O)c1-c1cc2c(cc1C)C(C)(C)CCC2(C)C [Compound 9, {5-[3-Methoxy-2-(3,5,5,8,8-pentamethyl-5,6,7,8-tetrahydro-naphthalen-2-yl)-benzylidene]4-oxo-2-thioxo-thiazolidin-3-yl}-acetic acid]
- anticancer effect [1]: very potent anticancer effect
- anticancer effect [2]: less pronounced
